Assay results as given in PubChem BioAssay (NCI).
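All cell lines were grown in 96-well plates and treated with compound for 48 hours. GI50: concentration for 50% inhibition of growth. At the TGI there is no net growth.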

Key:
Experiment in all cases: NCI tumour cell line growth inhibition, 48 h
[1] = tested on: A498 renal
[2] = tested on: A549 NSCLC
[3] = tested on: ACHN renal
[4] = tested on: CAKI-1 renal
[5] = tested on: CCRF-CEM leukemia
[6] = tested on: COLO 205 colon
[7] = tested on: DU-145 prostate
[8] = tested on: EKVX NSCLC
[9] = tested on: HCC-2998 colon
[10] = tested on: HCT-15 colon
[11] = tested on: HL-60(TB) leukemia
[12] = tested on: HOP-62 NSCLC
[13] = tested on: HOP-92 NSCLC
[14] = tested on: HS 578T breast
[15] = tested on: IGROV1 ovarian
[16] = tested on: K-562 leukemia
[17] = tested on: KM12 colon
[18] = tested on: LOX IMVI melanoma
[19] = tested on: M14 melanoma
[20] = tested on: MALME-3M melanoma
[21] = tested on: MCF7 breast
[22] = tested on: MDA-MB-231 breast
[23] = tested on: MDA-MB-435
[24] = tested on: MDA-N
[25] = tested on: MOLT-4 leukemia
[26] = tested on: NCI-H226 lung
[27] = tested on: NCI-H23 lung
[28] = tested on: NCI-H460 lung
[29] = tested on: NCI-H522 lung
[30] = tested on: NCI/ADR-RES ovarian
[31] = tested on: OVCAR-3 ovarian
[32] = tested on: OVCAR-5 ovarian
[33] = tested on: OVCAR-8 ovarian
[34] = tested on: PC-3 prostate
[35] = tested on: RPMI-8226 leukemia
[36] = tested on: RXF 393 renal
[37] = tested on: SF-268 CNS
[38] = tested on: SF-539 CNS
[39] = tested on: SK-MEL-2 melanoma
[40] = tested on: SK-MEL-28 melanoma
[41] = tested on: SK-MEL-5 melanoma
[42] = tested on: SN12C renal
[43] = tested on: SNB-19 CNS
[44] = tested on: SNB-75 CNS
[45] = tested on: SR leukemia
[46] = tested on: SW-620 colon
[47] = tested on: T-47D breast
[48] = tested on: U251 CNS
[49] = tested on: UACC-257 melanoma
[50] = tested on: UO-31 renal
[51] = tested on: 786-0 renal
[52] = tested on: HCT-116 colon
[53] = tested on: HT29 colon
[54] = tested on: OVCAR-4 ovarian
[55] = tested on: SF-295 CNS
[56] = tested on: SK-OV-3 ovarian
[57] = tested on: TK-10 renal
[58] = tested on: UACC-62 melanoma

In the case of `CCOP(=O)(COCCn1nc(Br)c(=O)[nH]c1=O)OCC`, the TGI [1] is reported as greater than 100 µM, the TGI [2] is reported as greater than 100 µM and the TGI [3] is reported as greater than 100 µM. For the same molecule, the TGI [4] was greater than 100 µM, the TGI [5] was greater than 100 µM and the TGI [6] was greater than 100 µM. It also gave a TGI [7] greater than 100 µM, a TGI [8] greater than 100 µM and a TGI [9] greater than 100 µM. It also gave a TGI [10] greater than 100 µM, a TGI [11] greater than 100 µM and a TGI [12] greater than 100 µM. For the same molecule, the TGI [13] was greater than 100 µM, the TGI [14] was greater than 100 µM and the TGI [15] was greater than 100 µM. For the same molecule, the TGI [16] was greater than 100 µM, the TGI [17] was greater than 100 µM and the TGI [18] was greater than 100 µM. For the same molecule, the TGI [19] was greater than 100 µM, the TGI [20] was greater than 100 µM and the TGI [21] was greater than 100 µM. The TGI [22] was greater than 100 µM, the TGI [23] was greater than 100 µM and the TGI [24] was greater than 100 µM. For the same molecule, the TGI [25] was greater than 100 µM, the TGI [26] was greater than 100 µM and the TGI [27] was greater than 100 µM. It also gave a TGI [28] greater than 100 µM, a TGI [29] greater than 100 µM and a TGI [30] greater than 100 µM. It also gave a TGI [31] greater than 100 µM, a TGI [32] greater than 100 µM and a TGI [33] greater than 100 µM. The TGI [34] was greater than 100 µM, the TGI [35] was greater than 100 µM and the TGI [36] was greater than 100 µM. For the same molecule, the TGI [37] was greater than 100 µM, the TGI [38] was greater than 100 µM and the TGI [39] was greater than 100 µM. For the same molecule, the TGI [40] was greater than 100 µM, the TGI [41] was greater than 100 µM and the TGI [42] was greater than 100 µM. The TGI [43] was greater than 100 µM, the TGI [44] was greater than 100 µM and the TGI [45] was greater than 100 µM. It also gave a TGI [46] greater than 100 µM, a TGI [47] greater than 100 µM and a TGI [48] greater than 100 µM. For the same molecule, the TGI [49] was greater than 100 µM and the TGI [50] was greater than 100 µM.
With `CC(=O)N=S(NC(=O)c1ccc(C)cc1)C(Cl)(Cl)Cl` (stereo not given) the TGI [51] was 33.1 µM, the TGI [2] was greater than 100 µM and the TGI [3] was greater than 100 µM. For the same molecule, the TGI [5] was 51.5 µM, the TGI [6] was 45.3 µM and the TGI [7] was greater than 100 µM. For the same molecule, the TGI [8] was greater than 100 µM, the TGI [9] was 30.5 µM and the TGI [52] was greater than 100 µM. For the same molecule, the TGI [10] was greater than 100 µM, the TGI [11] was 26.9 µM and the TGI [12] was greater than 100 µM. It also gave a TGI [13] greater than 100 µM, a TGI [14] greater than 100 µM and a TGI [53] of 60.6 µM. The TGI [15] was 93.4 µM, the TGI [16] was greater than 100 µM and the TGI [17] was greater than 100 µM. It also gave a TGI [18] of 80.1 µM, a TGI [19] of 31.8 µM and a TGI [20] of 96 µM. The TGI [21] was greater than 100 µM, the TGI [22] was 68 µM and the TGI [23] was 40.7 µM. It also gave a TGI [24] greater than 100 µM, a TGI [25] of 83.8 µM and a TGI [26] greater than 100 µM. It also gave a TGI [27] of 68.2 µM, a TGI [28] greater than 100 µM and a TGI [30] of 49.1 µM. For the same molecule, the TGI [31] was 52 µM, the TGI [54] was 77.7 µM and the TGI [32] was greater than 100 µM. For the same molecule, the TGI [33] was 33.1 µM, the TGI [34] was greater than 100 µM and the TGI [35] was greater than 100 µM. For the same molecule, the TGI [36] was greater than 100 µM, the TGI [37] was greater than 100 µM and the TGI [55] was greater than 100 µM. It also gave a TGI [38] greater than 100 µM, a TGI [40] greater than 100 µM and a TGI [41] of 77.9 µM. For the same molecule, the TGI [56] was greater than 100 µM, the TGI [42] was greater than 100 µM and the TGI [43] was greater than 100 µM. The TGI [44] was greater than 100 µM, the TGI [46] was 36.3 µM and the TGI [47] was greater than 100 µM. It also gave a TGI [57] greater than 100 µM, a TGI [48] of 59.3 µM and a TGI [49] greater than 100 µM. For the same molecule, the TGI [58] was greater than 100 µM and the TGI [50] was 56 µM.
`O=C1C2=C(Nc3cc([N+](=O)[O-])ccc3N2)OC1c1ccc(C2OC3=C(Nc4ccc([N+](=O)[O-])cc4N3)C2=O)cc1` (stereo not given) gave a GI50 [6] of 19.7 µM, a TGI [6] of 45.1 µM and a GI50 [52] of 79.9 µM. The GI50 [11] was 0.184 µM, the TGI [11] was 1.09 µM and the GI50 [53] was 98.9 µM. For the same molecule, the GI50 [16] was 19.1 µM, the GI50 [17] was 26.1 µM and the GI50 [21] was 53.3 µM. It also gave a GI50 [23] of 22.1 µM, a TGI [23] of 53.4 µM and a GI50 [24] of 42.8 µM. For the same molecule, the GI50 [25] was 22 µM, the GI50 [29] was 6.12 µM and the GI50 [31] was 37.5 µM. It also gave a GI50 [35] of 53.6 µM, a GI50 [37] of 64.9 µM and a GI50 [55] of 23.3 µM. For the same molecule, the TGI [55] was 77.3 µM, the GI50 [39] was 63.3 µM and the GI50 [40] was 41.8 µM. It also gave a GI50 [41] of 38.9 µM, a GI50 [45] of 19.4 µM and a GI50 [47] of 48 µM. It also gave a GI50 [49] of 28 µM, a TGI [49] of 96.8 µM and a GI50 [58] of 30.4 µM.
